Series [1] has as its system dog hepatocytes. Kind of series: NBD-PE accumulation assay in dog hepatocytes. The format is cell-based. The conditions noted are these: for NBD-PE accumulation, control activity: 300 μM, 24 h, N = 1. The source says: Primary rat hepatocytes were freshly isolated from Han Wistar rats at AstraZeneca, using the collagenase perfusion method (Selgen, PO, 1976). Primary dog hepatocytes were isolated at AstraZeneca, or purchased from CellzDirect Corp. (Durham, NC), which also uses a collagenase perfusion method. Cells were centrifuged and resuspended in hepatocyte culture media, consisting of Williams E basal media (Sigma-Aldrich, Inc., St. Louis, MO) 5% Hyclone fetal bovine serum (ThermoFisher Scientific Inc., Rockford, IL), 15 mM HEPES (Mediatech Inc., Manassas, VA), 100 units/mL penicillin/streptomycin, 200 μM l-glutamine, 1X ITS (insulin, transferrin, selenium solution from Mediatech Inc.), and 30 nM dexamethasone (Sigma-Aldrich). Cells were suspended at 2.5 × 10^5 cell/mL and added to BD Biocoat collagen I coated microtiter plates at 100 μL/well, for a final count of 25,000 cells/well. Selection criterion for use of initial isolates was 85% minimal viability. Cells were incubated at 37°C in a CO2 incubator for 4 h to allow for cell attachment. Media was aspirated and replaced with hepatocyte culture media without fetal bovine serum and supplemented with 150 μg/mL Matrigel collagen matrix (BD Inc.). […]
In a modification of the procedure described by Morelli et al., hepatocytes were treated with drugs diluted into culture media containing 12 μg/mL NBD-PE (N-(7-nitrobenz-2-oxa-1,3-diazol-4-yl)-1,2-dihexadecanoyl-sn-glycero-3-phosphoethanolamine, triethylammonium salt) for 24 hours. […] This fluorescent dye stains only cells with compromised cell membranes thereby enabling their exclusion from NBD-PE cell quantitation by the Cellomics ArrayScan instrument. […] Labeled cells were analyzed using the Cellomics Arrayscan instrument (Cellomics Inc., Pittsburgh, PA) with version 3.5 equipment and software. The ArrayScan captures fluorescent images in the 3 channels relevant to this assay (Hoechst, TRITC for Sytox staining and FITC for NBD-PE staining) and performs automated image analysis to quantify cell nuclei, the number of dead cells, and NBD-PE dye fluorescent intensity. […]

The test system of series [2] is rat hepatocytes. Kind of series: NBD-PE accumulation assay in rat hepatocytes. It counts as cell-based, Han Wistar rats. The conditions noted are these: for NBD-PE accumulation, control activity: 300 μM, N = 1. The source says:
(§1) Primary rat hepatocytes were freshly isolated from Han Wistar rats at AstraZeneca, using the collagenase perfusion method (Selgen, PO, 1976). Primary dog hepatocytes were isolated at AstraZeneca, or purchased from CellzDirect Corp. (Durham, NC), which also uses a collagenase perfusion method. Cells were centrifuged and resuspended in hepatocyte culture media, consisting of Williams E basal media (Sigma-Aldrich, Inc., St. Louis, MO) 5% Hyclone fetal bovine serum (ThermoFisher Scientific Inc., Rockford, IL), 15 mM HEPES (Mediatech Inc., Manassas, VA), 100 units/mL penicillin/streptomycin, 200 μM l-glutamine, 1X ITS (insulin, transferrin, selenium solution from Mediatech Inc.), and 30 nM dexamethasone (Sigma-Aldrich). Cells were suspended at 2.5 × 10^5 cell/mL and added to BD Biocoat collagen I coated microtiter plates at 100 μL/well, for a final count of 25,000 cells/well. Selection criterion for use of initial isolates was 85% minimal viability. Cells were incubated at 37°C in a CO2 incubator for 4 h to allow for cell attachment. Media was aspirated and replaced with hepatocyte culture media without fetal bovine serum and supplemented with 150 μg/mL Matrigel collagen matrix (BD Inc.). Cells were incubated in a CO2 incubator for 24 h, the media was replaced with hepatocyte culture media, and the cells were incubated for an additional 24 h. Compounds were solubilized in DMSO, water, or ethanol to 1000X stock and then diluted to 1X in media. All conditions contained equal concentrations of vehicle.
(§2) In a modification of the procedure described by Morelli et al., hepatocytes were treated with drugs diluted into culture media containing 12 μg/mL NBD-PE (N-(7-nitrobenz-2-oxa-1,3-diazol-4-yl)-1,2-dihexadecanoyl-sn-glycero-3-phosphoethanolamine, triethylammonium salt) for 24 hours. At the end of the treatment period, Sytox orange (100 nM Invitrogen Inc.) was added to cells for 20 minutes prior to fixation. This fluorescent dye stains only cells with compromised cell membranes thereby enabling their exclusion from NBD-PE cell quantitation by the Cellomics ArrayScan instrument. Media were aspirated, cells were washed with 1X PBS and fixed by the addition of 100 μL PBS containing 3.7% formaldehyde, and 1 μg/mL Hoechst dye. Fixation was allowed to proceed for 30 min at RT, and cells were washed three times with 1X PBS, and sealed for imaging. Labeled cells were analyzed using the Cellomics Arrayscan instrument (Cellomics Inc., Pittsburgh, PA) with version 3.5 equipment and software. The ArrayScan captures fluorescent images in the 3 channels relevant to this assay (Hoechst, TRITC for Sytox staining and FITC for NBD-PE staining) and performs automated image analysis to quantify cell nuclei, the number of dead cells, and NBD-PE dye fluorescent intensity. The analysis algorithms that enable cell versus well-based detection were purchased from Cellomics Inc. and are referred to as Cell Health Profiling (CHP) and Target Activation (TA) algorithms. […] NBD-PE peak signal was defined as the maximal response.

Series [3] concerns rat hepatocytes. Kind of series: cells. The format is cell-based. The conditions noted are these: for IC50: 24 h treatment, read-out: Survival IC50; for % survival: average ± std dev.
The subject of a further series is splenocyte. More on the design: method as in PMID 16463016. The conditions noted are these: in vitro, tested independently; cited from earlier work.
Series [4] has as its system dog hepatocytes. In words: Cell survival of primary dog hepatocytes (Cellomics Arrayscan). The conditions noted are these: for IC50: 24 h treatment. It counts as cell-based.
Excerpt: as §1, §2

Another series relates to dog liver. Kind of series: Preclinical in vivo toxicology studies in dog.
Another series relates to rat liver. In words: Preclinical in vivo toxicology studies in rat.
Series [5] relates to rat hepatocytes. Kind of series: Mitochondrial membrane potential (JC-1 fluorescence) in rat hepatocytes. The format is cell-based, Han Wistar rats.
Excerpt: as §1
JC-1 was added to cell cultures at a concentration of 5 μg/mL for 30 minutes to allow for cellular accumulation. Media were then aspirated and replaced with fresh media containing drugs of interest without JC-1. Fluorescence was detected using a spectrofluorometer. The ratio of red to green signals was calculated and converted to % control for graphing and analysis.

Series [6] deals with rat hepatocytes. Kind of series: Acridine orange lysosomal staining time course in rat hepatocytes. The format is cell-based, Han Wistar rats.
Series [7] relates to isolated rat mitochondria. More on the design: method as in PMID 17917797. The conditions noted are these: cited from earlier work.
Setting [8] is: Rattus norvegicus, Hepatocyte, 24 h.
The mark [9] stands for this setting: Canis lupus familiaris, Hepatocyte, 24 h.
The mark [10] stands for this setting: preclinical toxicology studies (1-month for compound A), unpublished observations / data not shown.
Setting [11] is: 1-month toxicology study, comparable plasma exposures, unpublished observations.

Like-named read-outs stand apart in the source and are kept apart here.

As usually defined, the IC50 is the concentration at which inhibition is half-maximal. One may read the EC50 as the concentration needed to bring the measured effect to its halfway point.

On to `CCCc1cccc2c(N)c(C(=O)NCC3CC3)nnc12` [compound C], for which the “NBD-PE accumulation, control activity” value in the series on dog hepatocytes [1] is on record as 121%; in the series on rat hepatocytes [2] (24 h), 95%. The IC50 in the series with rat hepatocytes [3] (setting [8]) and in the series on dog hepatocytes [4] (setting [9]) was more than 300 µM throughout. Further, in the series on splenocyte, the “Phospholipogenic response in splenocyte model” value (“Phospholipogenic response” below) was “negative”.
In the case of `Nc1ccc(N2CCOCC2)cc1` [compound D], the “NBD-PE accumulation, control activity” value in the series with dog hepatocytes [1] was 140%; in the series on rat hepatocytes [2] (24 h) it was 101%. Also, the IC50 in the series with rat hepatocytes [3] (setting [8]) and in the series on dog hepatocytes [4] (setting [9]) was more than 300 µM throughout. The “Phospholipogenic response” value in the series with splenocyte is given as “negative”.
As to `COc1cc2c(c(N3CCN(C)CC3)c1)O[C@@H](C(=O)Nc1ccc(N3CCOCC3)c(F)c1)CC2` [B], the IC50 in the series on rat hepatocytes [3] (setting [8]) is more than 300 µM; in the series on dog hepatocytes [4] (setting [9]) it was 153 ± 63 µM. Moreover, the “Phospholipogenic response” value with splenocyte is given as “phospholipogenic”.
In the series with rat hepatocytes [2] (50 μM, 24 h), `Cc1ccc(N2CCN(C)CC2)c2c1CC[C@@H](NC(=O)c1ccc(N3CCOCC3)cc1)C2` [NMTMB, N-[(2R)-5-methyl-8-(4-methylpiperazin-1-yl)tetralin-2-yl]-4-morpholino-benzamide] registered an NBD-PE accumulation of 4 fold vehicle control. Besides, the EC50 in the series on rat hepatocytes [2] (Hepatocyte, approximate, estimated from left-hand portion of bell-shaped curve) is approximately 65 µM. In addition, the “Drop in cell survival” value in the series on rat hepatocytes [3] (100 μM, 8 h treatment) was found to be 40%. Moreover, the Hepatocytes surviving with rat hepatocytes [3] (100 μM, 24 hr) is on record as ~ 80%. Further, the “% survival” value in the series with rat hepatocytes [3] (300 μM NMTMB alone) is listed as 9.3 ± 4%; in the series on rat hepatocytes [3] (300 μM NMTMB cotreated with PADK), 51 ± 8.5%. In addition, the “Survival compared to control” value with rat hepatocytes [3] (300 μM, 2 h) worked out at 20%. Also, the Cell death entry with rat hepatocytes [3] (300 μM, 4 h) is “cell death was complete”; in the series on dog hepatocytes [4] (100 μM, 24 hr), “complete cell death”. The IC50 in the series on rat hepatocytes [3] worked out at 148 ± 41 µM; in the series with rat hepatocytes [3] (setting [8]), 159 µM; with dog hepatocytes [4] (setting [9]), 37 ± 13 µM. Moreover, the “Phospholipidosis (PLD) in vivo” value in the series with dog liver (setting [10]) and in the series with rat liver (setting [10]) was “confirmed multiorgan in vivo phospholipogenics” in each case. Moreover, the “Time to maximum hyperpolarization” value in the series on rat hepatocytes [5] (100 μM) was not above 2 h. Also, the “Time to mitochondria hyperpolarization” value with rat hepatocytes [5] (100 μM) is not above 1 h. Also, the Mitochondrial polarization status result with rat hepatocytes [5] (300 μM) is on record as “mitochondria depolarization was observed within the first hour”. In addition, the “Mitochondrial polarization status with Baf cotreatment” value with rat hepatocytes [5] (300 μM NMTMB plus 30 nM Baf, by 1 h) was “marked shift from mitochondrial depolarization to a hyperpolarized state”. Moreover, the Cells dead in the series with dog hepatocytes [4] (50 μM, 24 h) is reported as ~ 70%. Moreover, the AO spot count entry is listed as “maintained or exceeded control levels” with rat hepatocytes [6] (100 μM, up to 8 h) and approximately 0% in the series on rat hepatocytes [6] (300 μM, by 4 h). Besides, the “Decline of AO spot count compared to control” value with rat hepatocytes [6] (300 μM, within 30 minutes) is listed as approximately 50%.
As for `O=C(O)Cc1ccccc1Nc1c(Cl)cccc1Cl` [Diclofenac, reference compound], the 50% inhibitory concentration (IC50) in the series on rat hepatocytes [3] (setting [8]) is 832 µM; in the series on dog hepatocytes [4] (setting [9]) it was 656 µM. Also, the “Phospholipogenic response” value in the series on splenocyte is “negative”.
For the compound `CCN(CCO)CCCC(C)Nc1ccnc2cc(Cl)ccc12` (centres unmarked) [Hydroxychloroquine, reference compound], the IC50 is more than 300 µM with rat hepatocytes [3], 220 µM in the series on rat hepatocytes [3] (setting [8]), 159 µM in the series with dog hepatocytes [4] and 90 µM in the series on dog hepatocytes [4] (setting [9]). Besides, the Change in survival in the series with rat hepatocytes [3] (control condition without Baf, 24 h) was 25–35%.
Turning to `COc1cc2c(c(N3CCN(C)CC3)c1)O[C@@H](C(=O)Nc1ccc(N3CCOCC3)cc1)CC2` [compound A], the IC50 in the series with rat hepatocytes [3] (Hepatocyte) is more than 450 µM; in the series on dog hepatocytes [4] (Canis lupus familiaris, Hepatocyte) it was 298 ± 22 µM. For the same compound, the “Centrilobular necrosis of liver” value with dog liver (setting [11]) and in the series with rat liver (setting [11]) was “only dog had concomitant centrilobular necrosis” each time.
Turning to `CO/C1=C\C(C)=C\[C@@H](C)[C@@H](O)[C@@H](C)C/C(C)=C/C=C/[C@H](OC)[C@@H]([C@@H](C)[C@@H](O)[C@H](C)[C@@]2(O)C[C@@H](O)[C@H](C)[C@@H](C(C)C)O2)OC1=O` [Baf, Bafilomycin A1, reference compound], the “Increase in control NBD-PE fluorescent staining” value with dog hepatocytes [1] (100 nM Baf) and in the series on rat hepatocytes [2] (100 nM Baf) was 2 fold in each case. Moreover, in [7], the “Minimal concentration affecting mitochondrial functions (potassium uptake, swelling, loss of membrane potential, uncoupling)” value is 50 nM.

The values above are taken from paper PMC3610344, “Differential Cytotoxicity Responses by Dog and Rat Hepatocytes to Phospholipogenic Treatments” (Journal of Toxicology, 2013).
